Like-named read-outs stand apart in the source and are kept apart here.

Data on four compounds can be found in patent US9539219B2, “Pharmaceutical compositions of carotenoid chylomicrons” (HEALTH-EVER BIOTECH CO. LTD, priority 2013, dated 2017).

The nature of data set [1]: Pharmacokinetic study of the chylomicron and micelle compositions in rats (gavage and i.v.). The class given is in vivo, male Sprague-Dawley rats. The following applies: rat. The method, then: The pharmacokinetic properties of the pharmaceutical composition prepared in Example 1 and the pharmaceutical composition prepared in Example 2 were assessed in male Sprague-Dawley rats.
A total of 24 rats (all rats with body weight of about 280 g each) were divided into two groups with 12 each, one received oral administration (gavage) while the other received intravenous (i.v.) injection.
The pharmaceutical composition in Example 1 and the pharmaceutical composition in Example 2 were administered via gavage and intravenous (IV) injection. An equivalent of 1.43 mg/kg of solanorubin was given by IV route (one-tenth of oral dosage) and an equivalent of 14.3 mg/kg of solanorubin was administered orally.
Blood samples were collected via the tail vein of the rats at the following time intervals: 2 minutes, 5 minutes, 10 minutes, 30 minutes, 1 hour, 2 hours, 4 hours, 8 hours, 24 hours, 48 hours and 72 hours after the composition was administered.
Pharmacokinetic study was carried out using the WinNonlin software system (Pharsight Co, Mountain View, Calif., USA) by non-compartmental model. The area under the drug concentration-time curve (AUC) was used to determine total amount of all-trans-solanorubin, cis-solanorubin, octohydrogenosolanorubin and hexahydrogenosolanorubin to reach the systematic circulation. Some other kinetic parameters such as Cmax, Tmax, and t1/2 were measured as well. The absolute bioavailability of trans-solanorubin, cis-solanorubin, octohydrogenosolanorubin and hexahydrogenosolanorubin was calculated using the following formula: […]
All the data were subjected to analysis of variance and Duncan's multiple range test using Statistical Analysis Software (SAS)^16 for statistical significance at P<0.05.

A short description of data set [2]: Stability at pH 2.0, 3.5, 6.0, 6.8 and 7.4. The class given is physicochemical. The note with it: pH 2.0, 3.5, 6.0, 6.8 and 7.4 for 1, 2, 4, 6, 12 or 24 h; for Change in concentration in micelles at different pH: micelle. The method, then:
(§1) Likewise, when chylomicron was stored at pH 2.0, 3.5, 6.0, 6.8 and 7.4 for 1, 2, 4, 6, 12 or 24 h, the stability of solanorubin, octohydrogenosolanorubin and hexahydrogenosolanorubin was maintained. The encapsulation efficiency of solanorubin in chylomicron was assessed to be approximately 80%.
(§2) The average size of the micelle, based on DLS and TEM analyses, was approximately 7.5 nm, with spherical shape and transparent appearance. […] Also, the mean values of solanorubin, octohydrogenosolanorubin and hexahydrogenosolanorubin were ranged from 0.34-0.38 mg/mL, 0.03-0.04 mg/mL and 0.03-0.04 mg/mL, respectively, during storage or heating under the same condition. […] The encapsulation efficiency of solanorubin in micelle was determined to be about 78%.

The nature of data set [3]: Stability during storage at 4° C. or 25° C. for 3 months or heating at 100° C. for 4 h. The class given is physicochemical. The note with it: 4° C. or 25° C. for 3 months or 100° C. for 4 h. How it is done:
as §1, §2

A further data set is described as follows: Encapsulation efficiency. The class given is physicochemical. How it is done:
as §1, §2

The conditions of data set [4]: cited from earlier work.
The conditions of data set [5]: rat, Faisal et al. J. Pharm. Pharmacol. 2010, cited from earlier work.
Data set [6] is described as follows: Pre-experiments on saturation of absorption (dose selection). The data set is classed as in vivo. The note with it: several pre-experiments.
The mark [7] stands for this setting: male, Sprague-Dawley, in vivo, po, 14.3 mg/kg.

The term Tmax denotes the time at which the peak concentration occurs. As to `CC(C)=CCCC(C)=CCCC(C)=CC=CC(C)=CC=CC=C(C)CCC=C(C)CCC=C(C)CCC=C(C)C` [Hexahydrogenosolanorubin, hexahydrogenosolanorubin], in data set [1] (in vivo, iv, 1.43 mg/kg), the “AUC higher for IV administered micelle composition compared to IV administered chylomicron composition (difference)” value was determined as 544 µg·min/mL; the “Cmax of IV administered micelle composition, fold higher than IV administered chylomicron composition” value came out at 9.6 fold; the Tmax is 0.033 h. Moreover, the “Change in concentration in micelles at different pH” value (shortened to “Change … at different pH”) in data set [2] was “only a minor change”.

As usually defined, the Cmax is the peak of the concentration-time curve. For the compound `CC(C)=CCC/C(C)=C/CC/C(C)=C/CC/C(C)=C/C=C/C=C(\C)CC/C=C(\C)CC/C=C(\C)CCC=C(C)C` [Octohydrogenosolanorubin, octohydrogenosolanorubin], in data set [1] (in vivo, iv, 1.43 mg/kg), the “AUC higher for IV administered micelle composition compared to IV administered chylomicron composition (difference)” value came to 311 µg·min/mL and the “Cmax of IV administered micelle composition, fold higher than IV administered chylomicron composition” value was found to be 5.9 fold. For the same compound, the Cmax in data set [1] (in vivo, po, 14.3 mg/kg) was determined as 60 ng/mL. Further, in data set [2], the “Change … at different pH” value is listed as “only a minor change”.

The AUC is the area under the concentration-time curve, a measure of exposure. In general, bioavailability refers to dose-corrected exposure relative to a reference, in per cent. Low values mean little systemic uptake, high ones much systemic uptake. What is called half-life is the time needed for the level to fall by half in the phase considered. Consider `CC(C)=CCC/C(C)=C/C=C/C(C)=C/C=C/C(C)=C/C=C/C=C(C)/C=C/C=C(C)/C=C/C=C(\C)CCC=C(C)C` [Solanorubin, solanorubin], for which, in data set [1] (IV 1.43 mg/kg BW), the “Cmax of IV administered micelle composition, fold higher than IV administered chylomicron composition” value amounted to 7.8 fold. Moreover, the AUC in data set [1] (male, Sprague-Dawley, in vivo, IV 1.43 mg/kg BW, read-out: AUC higher for IV administered micelle composition compared to IV administered chylomicron composition (difference) (converted)) was 3380 ng·h/mL; in data set [1] (male, Sprague-Dawley, in vivo, iv, 1.43 mg/kg), 12200 ± 1400 ng·h/mL; in data set [1] (male, Sprague-Dawley, in vivo, iv, 1.43 mg/kg, AUC), 8830 ng·h/mL; in data set [1] (setting [7]) it was 8380 ng·h/mL; in data set [1] (male, Sprague-Dawley, in vivo, po, 14.3 mg/kg, AUC), 8270 ng·h/mL. For the same compound, the bioavailability is 9.5% in data set [1] (male, Sprague-Dawley, in vivo, 14.3 mg/kg) and 6.8% in data set [1] (male, Sprague-Dawley, in vivo, 14.3 mg/kg, Bioavailability). Moreover, the Tmax was 0.0333 h in data set [1] (male, Sprague-Dawley, in vivo, iv, 1.43 mg/kg, Tmax); 4 h in data set [1] (setting [7]); 2 h in data set [1] (male, Sprague-Dawley, in vivo, po, 14.3 mg/kg, Tmax). In addition, the Cmax in data set [1] (setting [7]) came to 180 ng/mL; in data set [1] (male, Sprague-Dawley, in vivo, po, 14.3 mg/kg, Cmax), 270 ng/mL. The compound further showed a t1/2 in data set [1] (setting [7]) of 33.63 ± 5.43 h. This compound showed a half-life in data set [1] (male, Sprague-Dawley, in vivo, po, 14.3 mg/kg, t1/2) of 28.9 ± 3.3 h. Moreover, the “Stability of the carotenoid in chylomicron (change in concentration)” value in data set [3] (chylomicron) was “high stability”. Moreover, the “Mean concentration during storage or heating” value in data set [3] (micelle) was 340000 to 380000 ng/mL. For the same compound, the “Stability of the carotenoid in chylomicron at different pH” value in data set [2] (chylomicron) is “maintained”. In data set [2], the “Change … at different pH” value is given as “only a minor change”. For the same compound, the values for the Encapsulation efficiency result in the data set “Encapsulation efficiency” (solanorubin in chylomicron) and in the data set “Encapsulation efficiency” (solanorubin in micelle) were “approximately 80%” and “about 78%”, respectively. Further, the Solubility in water result in data set [4] is “insoluble in water”; in data set [4] (listed as solanorubin), “practically insoluble in water”. The “Bioavailability of solanorubin not encapsulated / from natural sources” value was “about 1.85%” in data set [5] and 1.85% in data set [5] (listed as non-encapsulated solanorubin).

In the case of `CC(C)=CCC/C(C)=C/C=C/C(C)=C/C=C/C(C)=C/C=C/C=C(C)/C=C/C=C(C)/C=C/C=C(\C)CCC=C(C)C` [lycopene], the “Dose above which saturation of absorption may occur” value in data set [6] is given as “higher than 14.3 mg/kg BW”.
